According to the supplement of paper PMC8967900:

Key:
Experiment in all cases: selective drug sensitivity score (sDSS, relative to normal bone marrow) (sDSS (score)); higher = more potent and effective on the cell line relative to normal bone marrow cells
Settings in all cases: 72 h
MN-60 = test system: MN-60
KASUMI-9 = test system: KASUMI-9
LC4-1 = test system: LC4-1
DND-41 = test system: DND-41
KASUMI-10 = test system: KASUMI-10
ALL-PO = test system: ALL-PO
MOLT-16 = test system: MOLT-16
COG-LL-332h = test system: COG-LL-332h
SUP-B15 = test system: SUP-B15
HPB-ALL = test system: HPB-ALL
CCRF-HSB2 = test system: CCRF-HSB2
SEM cells = test system: SEM cells
COG-LL-355h = test system: COG-LL-355h
REH = test system: REH
TANOUE = test system: TANOUE
PF-382 = test system: PF-382
TMD5 = test system: TMD5
KARPAS-45 = test system: KARPAS-45
ALL-SIL = test system: ALL-SIL
P12-ICHIKAWA = test system: P12-ICHIKAWA
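Also: ALL cell lines in 384-well plates, five doses spanning 10,000-fold, each plate scaled between vehicle and 100 µmol/L benzalkonium chloride controls, sDSS an adapted area-under-curve metric.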

CO[C@H]1C[C@@H]2CC[C@@H](C)[C@@](O)(O2)C(=O)C(=O)N2CCCC[C@H]2C(=O)O[C@H]([C@H](C)C[C@@H]2CC[C@@H](OP(C)(C)=O)[C@H](OC)C2)CC(=O)[C@H](C)/C=C(\C)[C@@H](O)[C@@H](OC)C(=O)[C@H](C)C[C@H](C)/C=C/C=C/C=C/1C [Ridaforolimus] (top concentration 100 nM)
selective drug sensitivity score (MN-60): 5.16 | selective drug sensitivity score (KASUMI-9): 6.96 | selective drug sensitivity score (LC4-1): 4.46 | selective drug sensitivity score (DND-41): -2.54 | selective drug sensitivity score (KASUMI-10): -4.84 | selective drug sensitivity score (ALL-PO): 2.66 | selective drug sensitivity score (MOLT-16): 10.6 | selective drug sensitivity score (COG-LL-332h): 7.36 | selective drug sensitivity score (SUP-B15): 8.96 | selective drug sensitivity score (HPB-ALL): -4.84 | selective drug sensitivity score (CCRF-HSB2): 7.46 | selective drug sensitivity score (SEM cells): 5.66 | selective drug sensitivity score (COG-LL-355h): -2.14 | selective drug sensitivity score (REH): 6.96 | selective drug sensitivity score (TANOUE): -4.84 | selective drug sensitivity score (PF-382): 5.86 | selective drug sensitivity score (TMD5): -4.84 | selective drug sensitivity score (KARPAS-45): 1.56 | selective drug sensitivity score (ALL-SIL): 3.06 | selective drug sensitivity score (P12-ICHIKAWA): -0.94

COc1cccc2c1C(=O)c1c(O)c3c(c(O)c1C2=O)C[C@@](O)(C(C)=O)C[C@@H]3O[C@H]1C[C@H](N)[C@H](O)[C@H](C)O1 [Daunorubicin] (top concentration 1000 nM)
selective drug sensitivity score (MN-60): -0.34 | selective drug sensitivity score (KASUMI-9): 7.06 | selective drug sensitivity score (LC4-1): 6.36 | selective drug sensitivity score (DND-41): -0.54 | selective drug sensitivity score (KASUMI-10): 9.06 | selective drug sensitivity score (ALL-PO): -0.34 | selective drug sensitivity score (MOLT-16): 13.5 | selective drug sensitivity score (COG-LL-332h): 12.1 | selective drug sensitivity score (SUP-B15): 11.9 | selective drug sensitivity score (HPB-ALL): -1.64 | selective drug sensitivity score (CCRF-HSB2): 12.5 | selective drug sensitivity score (SEM cells): 6.06 | selective drug sensitivity score (COG-LL-355h): 5.06 | selective drug sensitivity score (REH): 6.16 | selective drug sensitivity score (TANOUE): -9.54 | selective drug sensitivity score (PF-382): 1.26 | selective drug sensitivity score (TMD5): 1.86 | selective drug sensitivity score (KARPAS-45): -0.34 | selective drug sensitivity score (ALL-SIL): 1.26 | selective drug sensitivity score (P12-ICHIKAWA): 6.96

CO[C@H]1C[C@@H]2CC[C@@H](C)[C@@](O)(O2)C(=O)C(=O)N2CCCC[C@H]2C(=O)O[C@H]([C@H](C)C[C@@H]2CC[C@@H](OC(=O)C(C)(CO)CO)[C@H](OC)C2)CC(=O)[C@H](C)/C=C(\C)[C@@H](O)[C@@H](OC)C(=O)[C@H](C)C[C@H](C)/C=C/C=C/C=C/1C [Temsirolimus] (top concentration 100 nM)
selective drug sensitivity score (MN-60): 2.46 | selective drug sensitivity score (KASUMI-9): 9.06 | selective drug sensitivity score (LC4-1): 3.46 | selective drug sensitivity score (DND-41): 3.66 | selective drug sensitivity score (KASUMI-10): -5.04 | selective drug sensitivity score (ALL-PO): 2.56 | selective drug sensitivity score (MOLT-16): 11.7 | selective drug sensitivity score (COG-LL-332h): 8.46 | selective drug sensitivity score (SUP-B15): 9.86 | selective drug sensitivity score (HPB-ALL): -4.44 | selective drug sensitivity score (CCRF-HSB2): 7.76 | selective drug sensitivity score (SEM cells): 1.36 | selective drug sensitivity score (COG-LL-355h): -2.54 | selective drug sensitivity score (REH): 3.96 | selective drug sensitivity score (TANOUE): -5.04 | selective drug sensitivity score (PF-382): 7.46 | selective drug sensitivity score (TMD5): -5.04 | selective drug sensitivity score (KARPAS-45): 2.26 | selective drug sensitivity score (ALL-SIL): 2.76 | selective drug sensitivity score (P12-ICHIKAWA): -1.44

COC(=O)c1ccc2c(c1)NC(=O)/C2=C(\Nc1ccc(N(C)C(=O)CN2CCN(C)CC2)cc1)c1ccccc1 [Nintedanib] (top concentration 10000 nM)
selective drug sensitivity score (MN-60): -6.36 | selective drug sensitivity score (KASUMI-9): -1.26 | selective drug sensitivity score (LC4-1): -4.36 | selective drug sensitivity score (DND-41): -3.16 | selective drug sensitivity score (KASUMI-10): 14.1 | selective drug sensitivity score (ALL-PO): 11.1 | selective drug sensitivity score (MOLT-16): -2.26 | selective drug sensitivity score (COG-LL-332h): 4.44 | selective drug sensitivity score (SUP-B15): 9.44 | selective drug sensitivity score (HPB-ALL): 0.64 | selective drug sensitivity score (CCRF-HSB2): 28.6 | selective drug sensitivity score (SEM cells): 16 | selective drug sensitivity score (COG-LL-355h): -0.16 | selective drug sensitivity score (REH): -5.16 | selective drug sensitivity score (TANOUE): -6.36 | selective drug sensitivity score (PF-382): 5.04 | selective drug sensitivity score (TMD5): 0.84 | selective drug sensitivity score (KARPAS-45): 0.54 | selective drug sensitivity score (ALL-SIL): 14.3 | selective drug sensitivity score (P12-ICHIKAWA): -2.96

CCN(CC)C(=S)SSC(=S)N(CC)CC [Disulfiram(+CuCl2)] (top concentration 50000 nM)
selective drug sensitivity score (MN-60): -2.12 | selective drug sensitivity score (KASUMI-9): 2.28 | selective drug sensitivity score (LC4-1): 7.38 | selective drug sensitivity score (DND-41): -2.12 | selective drug sensitivity score (KASUMI-10): -1.52 | selective drug sensitivity score (ALL-PO): -2.12 | selective drug sensitivity score (MOLT-16): 13.9 | selective drug sensitivity score (COG-LL-332h): -0.52 | selective drug sensitivity score (SUP-B15): 10.7 | selective drug sensitivity score (HPB-ALL): 15.8 | selective drug sensitivity score (CCRF-HSB2): -2.12 | selective drug sensitivity score (SEM cells): -2.12 | selective drug sensitivity score (COG-LL-355h): 1.48 | selective drug sensitivity score (REH): -0.32 | selective drug sensitivity score (TANOUE): -1.62 | selective drug sensitivity score (PF-382): -0.02 | selective drug sensitivity score (TMD5): -2.12 | selective drug sensitivity score (KARPAS-45): -2.12 | selective drug sensitivity score (ALL-SIL): -2.12 | selective drug sensitivity score (P12-ICHIKAWA): -2.12

Cc1sc2c(c1C)C(c1ccc(Cl)cc1)=N[C@@H](CC(=O)Nc1ccc(O)cc1)c1nnc(C)n1-2 [Birabresib] (top concentration 10000 nM)
selective drug sensitivity score (MN-60): 6.72 | selective drug sensitivity score (KASUMI-9): 13.1 | selective drug sensitivity score (LC4-1): 4.92 | selective drug sensitivity score (DND-41): 0.92 | selective drug sensitivity score (KASUMI-10): 7.02 | selective drug sensitivity score (ALL-PO): 5.22 | selective drug sensitivity score (MOLT-16): 7.92 | selective drug sensitivity score (COG-LL-332h): -4.28 | selective drug sensitivity score (SUP-B15): 3.42 | selective drug sensitivity score (HPB-ALL): -0.08 | selective drug sensitivity score (CCRF-HSB2): -0.98 | selective drug sensitivity score (SEM cells): 11.6 | selective drug sensitivity score (COG-LL-355h): 2.42 | selective drug sensitivity score (REH): -3.18 | selective drug sensitivity score (TANOUE): -4.78 | selective drug sensitivity score (PF-382): 3.42 | selective drug sensitivity score (TMD5): -9.18 | selective drug sensitivity score (KARPAS-45): 9.42 | selective drug sensitivity score (ALL-SIL): 0.02 | selective drug sensitivity score (P12-ICHIKAWA): 5.22
